Assay results from patent US4092412A, “Treatment of herpes simplex infections” (Abbott Laboratories, priority 1977, dated 1978).

Experiments:
[1] = target: T1, Herpes simplex type 2 deoxyribonucleic acid (DNA) polymerase (Human herpesvirus 2, UniProt P89453); experiment: Viral DNA polymerase assay; assay type: biochemical, herpes simplex virus type 2; details: 50% inhibition of herpes simplex type 2 DNA polymerase; read-out: Concentration (μg/ml) giving 50% Percent Inhibition (converted)
T1 construct: made in house; host or cells: Herpes virus infected Wi-38 cells (native viral enzyme, not recombinant; DEAE-cellulose and phosphocellulose chromatography)
T1 sequence (P89453 1-1240): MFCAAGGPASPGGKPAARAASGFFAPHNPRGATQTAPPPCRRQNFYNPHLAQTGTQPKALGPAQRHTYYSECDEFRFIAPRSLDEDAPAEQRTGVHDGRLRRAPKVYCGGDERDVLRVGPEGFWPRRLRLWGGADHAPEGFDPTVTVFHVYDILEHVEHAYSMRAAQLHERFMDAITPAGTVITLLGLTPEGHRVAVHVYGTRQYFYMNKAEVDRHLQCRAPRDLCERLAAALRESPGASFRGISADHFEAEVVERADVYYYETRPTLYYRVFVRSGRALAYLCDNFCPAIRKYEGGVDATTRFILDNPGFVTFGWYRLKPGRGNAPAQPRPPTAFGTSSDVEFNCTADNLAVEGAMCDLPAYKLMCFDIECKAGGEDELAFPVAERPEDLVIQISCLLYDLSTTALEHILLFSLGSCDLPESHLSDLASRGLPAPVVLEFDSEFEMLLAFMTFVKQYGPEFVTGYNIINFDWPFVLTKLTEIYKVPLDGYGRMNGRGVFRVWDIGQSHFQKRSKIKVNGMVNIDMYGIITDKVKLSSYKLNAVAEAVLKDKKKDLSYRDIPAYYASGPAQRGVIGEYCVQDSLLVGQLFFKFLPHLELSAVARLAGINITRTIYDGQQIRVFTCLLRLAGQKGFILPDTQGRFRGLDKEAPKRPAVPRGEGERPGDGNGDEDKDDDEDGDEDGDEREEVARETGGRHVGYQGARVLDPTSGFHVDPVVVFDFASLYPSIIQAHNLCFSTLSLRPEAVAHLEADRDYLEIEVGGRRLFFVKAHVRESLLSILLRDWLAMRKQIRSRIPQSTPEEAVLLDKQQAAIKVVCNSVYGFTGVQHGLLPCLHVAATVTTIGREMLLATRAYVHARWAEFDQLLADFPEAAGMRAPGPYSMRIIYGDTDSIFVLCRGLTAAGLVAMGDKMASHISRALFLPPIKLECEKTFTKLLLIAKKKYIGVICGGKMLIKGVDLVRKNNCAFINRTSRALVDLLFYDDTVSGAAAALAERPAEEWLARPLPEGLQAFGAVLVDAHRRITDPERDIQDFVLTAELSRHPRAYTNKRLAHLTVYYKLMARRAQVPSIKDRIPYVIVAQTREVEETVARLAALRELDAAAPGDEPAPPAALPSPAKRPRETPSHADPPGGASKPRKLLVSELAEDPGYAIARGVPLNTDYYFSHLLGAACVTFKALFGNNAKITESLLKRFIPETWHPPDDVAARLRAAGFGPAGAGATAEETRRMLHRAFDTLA
Procedure: Isolation and Purification of Herpes Simplex Type 2 Deoxyribonucleic Acid (DNA) Polymerase
The DNA polymerase was isolated according to the procedure of Smith and Gallo (1972) which involved column chromatography on DEAE-cellulose and phosphocellulose. However, buffer containing 20% glyceryl instead of 10% was used. The final enzyme preparation has a specific activity of 313 unit/mg. for herpes simplex virus type 2.
Viral Deoxyribonucleic Acid (DNA) Polymerase Assay
The reaction mixture (0.2 ml.) contains 10 μM of 2'-deoxyadenosine-5'-triphosphate, 2'-deoxycytidine-5'-triphosphate, 2'-deoxyguanosine-5'-triphosphate, and 2.5 μM tritium labeled thymidine-5'-triphosphate which was appropriately diluted with unlabeled dTTP to give 880 counts per minute per pico-mole, 10 μg of activated calf thymus DNA 50 mM Tris-HCl buffer (pH 8.0), 3mM MgCl2, 100 mM KCl and 1 mM dithiothritol. The amounts of enzyme used in each reaction was chosen to give a linear rate for at least 30 minutes at 37° C. The reaction was terminated by the addition of 3 ml. of cold 5% trichloroacetic acid - 0.01 M sodium pyrophosphate. The acid-insoluble material was collected, washed twice on glass filter discs (Reeve Angel 984-H) and the incorporated ^3 H-dTMP was determined by a liquid scintillation counter.

[2] = tested on: herpes simplex virus (HSV) type 1 or type 2; experiment: Antiviral activity by plaque reduction method; assay type: cell-based, herpes simplex virus (in rabbit kidney cells); parameters: key: 0 = inactive; +2 = moderate activity; +4 = very active; details: rabbit kidney cells, plaques counted 3 to 4 days after infection
Procedure: Determination of Antiviral Activity by Plaque Reduction Method
The inhibitory effect of new compounds upon herpes simplex virus (HSV) type 1 or type 2 was analyzed by the plaque reduction assay. Confluent monolayers of rabbit kidney cells grown in 60 mm plastic petri dishes were infected with HSV by adsorption for 1 hour at room temperature. The appropriate concentration of the test compound was added at the time of initial virus infection. Following virus adsorption the cells were overlayed with Eagle's medium (BME) supplemented with 10% fetal bovine serum, 0.225% NaHCO3 and 0.5% methycellulose. The appropriate concentration of the test compound was also added to this overlay. Infected cultures were then incubated at 37° C. for the remainder of the test. Three to four days following virus infection, each culture was stained with crystal violet and the herpes virus induced plaques counted.

[3] = tested on: herpes simplex infections; experiment: Topical test against herpes simplex infections in CF mice; assay type: in vivo; details: 10 mice per group, topical 2% aqueous solution, 11 applications, 14 day test
Procedure: The following test was applied to determine the effectiveness of the carboxylic esters of phosphonoacetic acid against herpes simplex infections in mice. The compounds tested included the compounds shown above as II and III. Also included were a standard virus control as well as a normal (no virus) control.
Herpes virus (10^7 TCID50 /ml) was applied topically (0.05 ml) to the denuded skin and impregnated into the dermis with a 24-gauge sterile hypodermic needle. In untreated animals, herpes lesions or vesicles usually develop in 3 to 5 days. The lesions form bands which extend over the denuded area. After approximately 10 days, mice usually develop a paralysis which results in their death. The test was allowed to continue for a total of 14 days.
Some of the animals were treated topically by having the drug applied to the site of infection as a 2% aqueous solution 2 hours after the virus was introduced into the skin, and twice daily for 5 consecutive days. The drug was applied a total of 11 times. A single application of a 2% drug solution delivered approximately 2 mg of material.
The Mann-Whitney "U" Test was used to statistically analyze the herpes infection in mice by making paired comparisons between the treated and untreated virus control groups. […]

Compound | IC50 [1] [µM] | Inhibition of plaques [2] | No. of Mice Dead [3] | No. of Mice Paralyzed [3]
CCOC(=O)CP(=O)(O)O [Compound II, Ethyl Phosphonoacetate] | 23.2 | +4 | 3 | 2
COC(=O)CP(=O)(O)O [Compound III, Methyl Phosphonoacetate] | 45.4 | +2 | 5 | 2
